Literature values as cited in US11553715B2, “Synthesis and formulation of lignin derived compounds as treatment of plant diseases” (University of Kentucky Research Foundation, priority 2019, dated 2023).

## COc1cc(C=O)ccc1O [Vanillin]
yeast
  antimicrobial concentration as a food preservative: 0.76 mg/mL
bacteria
  antimicrobial concentration as a food preservative: 1.5 mg/mL
